Laboratory results: ChEMBL document CHEMBL4414672, “Synthesis of certain benzothieno[3,2-d]pyrimidine derivatives as a selective SIRT2 inhibitors” (Eur J Med Chem, 2020)

What was measured:
Type in all cases: functional
SN12C = experiment: Growth inhibition of human SN12C cells at 10^-5 M incubated for 48 hrs by sulforhodamine B assay; details: read-out: GI
SNB-75 = experiment: Growth inhibition of human SNB75 cells at 10^-5 M incubated for 48 hrs by sulforhodamine B assay; details: SNB-75, 48 h, read-out: GI
OVCAR-3 = experiment: Growth inhibition of human OVCAR3 cells at 10^-5 M incubated for 48 hrs by sulforhodamine B assay; details: OVCAR-3, 48 h, read-out: GI
Hs-578T = experiment: Growth inhibition of human Hs 578T cells at 10^-5 M incubated for 48 hrs by sulforhodamine B assay; details: read-out: GI
MDA-MB-468 = experiment: Growth inhibition of human MDA-MB-468 cells at 10^-5 M incubated for 48 hrs by sulforhodamine B assay; details: MDA-MB-468, 48 h, read-out: GI
SK-MEL-28 = experiment: Growth inhibition of human SK-MEL-28 cells at 10^-5 M incubated for 48 hrs by sulforhodamine B assay; details: SK-MEL-28, 48 h, read-out: GI
A498 = experiment: Growth inhibition of human A498 cells at 10^-5 M incubated for 48 hrs by sulforhodamine B assay; details: A498, 48 h, read-out: GI
NCI-H226 = experiment: Growth inhibition of human NCI-H226 cells at 10^-5 M incubated for 48 hrs by sulforhodamine B assay; details: NCI-H226, 48 h, read-out: GI
MOLT-4 = experiment: Growth inhibition of human MOLT4 cells at 10^-5 M incubated for 48 hrs by sulforhodamine B assay; details: MOLT-4, 48 h, read-out: GI
PC-3 = experiment: Growth inhibition of human PC3 cells at 10^-5 M incubated for 48 hrs by sulforhodamine B assay; details: PC-3, 48 h, read-out: GI
SR = experiment: Growth inhibition of human SR cells at 10^-5 M incubated for 48 hrs by sulforhodamine B assay; details: read-out: GI
CCRF-CEM = experiment: Growth inhibition of human CCRF-CEM cells at 10^-5 M incubated for 48 hrs by sulforhodamine B assay; details: read-out: GI
NCI-H322M = experiment: Growth inhibition of human NCI-H322M cells at 10^-5 M incubated for 48 hrs by sulforhodamine B assay; details: read-out: GI
HT-29 = experiment: Growth inhibition of human HT-29 cells at 10^-5 M incubated for 48 hrs by sulforhodamine B assay; details: HT-29, 48 h, read-out: GI
CAKI-1 = experiment: Growth inhibition of human Caki1 cells at 10^-5 M incubated for 48 hrs by sulforhodamine B assay; details: CAKI-1, 48 h, read-out: GI
MDA-MB-435 = experiment: Growth inhibition of human MDA-MB-435 cells at 10^-5 M incubated for 48 hrs by sulforhodamine B assay; details: MDA-MB-435, 48 h, read-out: GI
MCF7 = experiment: Growth inhibition of human MCF7 cells at 10^-5 M incubated for 48 hrs by sulforhodamine B assay; details: MCF7, 48 h, read-out: GI
UACC-62 = experiment: Growth inhibition of human UACC62 cells at 10^-5 M incubated for 48 hrs by sulforhodamine B assay; details: UACC-62, 48 h, read-out: GI
NCI-H522 = experiment: Growth inhibition of human NCI-H522 cells at 10^-5 M incubated for 48 hrs by sulforhodamine B assay; details: NCI-H522, 48 h, read-out: GI
LOX IMVI = experiment: Growth inhibition of human LOXIMVI cells at 10^-5 M incubated for 48 hrs by sulforhodamine B assay; details: read-out: GI
A549 = experiment: Growth inhibition of human A549/ATCC cells at 10^-5 M incubated for 48 hrs by sulforhodamine B assay; details: A549, 48 h, read-out: GI
SF-539 = experiment: Growth inhibition of human SF539 cells at 10^-5 M incubated for 48 hrs by sulforhodamine B assay; details: SF-539, 48 h, read-out: GI
IGROV-1 = experiment: Growth inhibition of human IGROV1 cells at 10^-5 M incubated for 48 hrs by sulforhodamine B assay; details: IGROV-1, 48 h, read-out: GI
SNB-19 = experiment: Growth inhibition of human SNB19 cells at 10^-5 M incubated for 48 hrs by sulforhodamine B assay; details: SNB-19, 48 h, read-out: GI
OVCAR-4 = experiment: Growth inhibition of human OVCAR4 cells at 10^-5 M incubated for 48 hrs by sulforhodamine B assay; details: OVCAR-4, 48 h, read-out: GI
TK-10 = experiment: Growth inhibition of human TK10 cells at 10^-5 M incubated for 48 hrs by sulforhodamine B assay; details: TK-10, 48 h, read-out: GI
UACC-257 = experiment: Growth inhibition of human UACC257 cells at 10^-5 M incubated for 48 hrs by sulforhodamine B assay; details: UACC-257, 48 h, read-out: GI
OVCAR-5 = experiment: Growth inhibition of human OVCAR5 cells at 10^-5 M incubated for 48 hrs by sulforhodamine B assay; details: OVCAR-5, 48 h, read-out: GI
Malme-3M = experiment: Growth inhibition of human MALME-3M cells at 10^-5 M incubated for 48 hrs by sulforhodamine B assay; details: read-out: GI
COLO 205 = experiment: Growth inhibition of human COLO205 cells at 10^-5 M incubated for 48 hrs by sulforhodamine B assay; details: COLO 205, 48 h, read-out: GI
ACHN = experiment: Growth inhibition of human ACHN cells at 10^-5 M incubated for 48 hrs by sulforhodamine B assay; details: read-out: GI
HCC 2998 = experiment: Growth inhibition of human HCC2998 cells at 10^-5 M incubated for 48 hrs by sulforhodamine B assay; details: HCC 2998, 48 h, read-out: GI
T47D = experiment: Growth inhibition of human T47D cells at 10^-5 M incubated for 48 hrs by sulforhodamine B assay; details: read-out: GI
EKVX = experiment: Growth inhibition of human EKVX cells at 10^-5 M incubated for 48 hrs by sulforhodamine B assay; details: read-out: GI
SW-620 = experiment: Growth inhibition of human SW620 cells at 10^-5 M incubated for 48 hrs by sulforhodamine B assay; details: SW-620, 48 h, read-out: GI
BT-549 = experiment: Growth inhibition of human BT549 cells at 10^-5 M incubated for 48 hrs by sulforhodamine B assay; details: BT-549, 48 h, read-out: GI
HCT-15 = experiment: Growth inhibition of human HCT15 cells at 10^-5 M incubated for 48 hrs by sulforhodamine B assay; details: HCT-15, 48 h, read-out: GI
SF-295 = experiment: Growth inhibition of human SF295 cells at 10^-5 M incubated for 48 hrs by sulforhodamine B assay; details: SF-295, 48 h, read-out: GI
DU-145 = experiment: Growth inhibition of human DU145 cells at 10^-5 M incubated for 48 hrs by sulforhodamine B assay; details: DU-145, 48 h, read-out: GI

| Compound | inhibition of growth at 10 µM (SN12C) | inhibition of growth at 10 µM (SNB-75) | inhibition of growth at 10 µM (OVCAR-3) | inhibition of growth at 10 µM (Hs-578T) | inhibition of growth at 10 µM (MDA-MB-468) | inhibition of growth at 10 µM (SK-MEL-28) | inhibition of growth at 10 µM (A498) | inhibition of growth at 10 µM (NCI-H226) | inhibition of growth at 10 µM (MOLT-4) | inhibition of growth at 10 µM (PC-3) | inhibition of growth at 10 µM (SR) | inhibition of growth at 10 µM (CCRF-CEM) | inhibition of growth at 10 µM (NCI-H322M) | inhibition of growth at 10 µM (HT-29) | inhibition of growth at 10 µM (CAKI-1) | inhibition of growth at 10 µM (MDA-MB-435) | inhibition of growth at 10 µM (MCF7) | inhibition of growth at 10 µM (UACC-62) | inhibition of growth at 10 µM (NCI-H522) | inhibition of growth at 10 µM (LOX IMVI) | further results |
| --- | --- | --- | --- | --- | --- | --- | --- | --- | --- | --- | --- | --- | --- | --- | --- | --- | --- | --- | --- | --- | --- |
| CCOC(=O)CSC1=Nc2c(sc3ccc(Cl)cc23)C(c2cccc([N+](=O)[O-])c2)N1 (stereo not drawn) | 2.9% | 11.3% | 0.63% | -3.04% | -24.4% | -14% | 6.9% | 8.28% | 14.6% | 9.33% | 21.4% | -8.55% | 7.77% | -15.9% | 16.5% | -10.6% | 20.1% | 6.62% | 4.34% | 0.14% | inhibition of growth at 10 µM (A549): 2.51%; inhibition of growth at 10 µM (SF-539): -3.84%; inhibition of growth at 10 µM (IGROV-1): 21.6%; inhibition of growth at 10 µM (SNB-19): -0.3%; inhibition of growth at 10 µM (OVCAR-4): -4.53%; inhibition of growth at 10 µM (TK-10): -16.2%; inhibition of growth at 10 µM (UACC-257): 2.03%; inhibition of growth at 10 µM (OVCAR-5): -1.2%; inhibition of growth at 10 µM (Malme-3M): 5.55%; inhibition of growth at 10 µM (COLO 205): -3.41%; inhibition of growth at 10 µM (ACHN): 6.61%; inhibition of growth at 10 µM (HCC 2998): -16.9%; inhibition of growth at 10 µM (T47D): 22.6%; inhibition of growth at 10 µM (EKVX): 15.9%; inhibition of growth at 10 µM (SW-620): -4.96%; inhibition of growth at 10 µM (BT-549): -12.4%; inhibition of growth at 10 µM (HCT-15): -2.2%; inhibition of growth at 10 µM (SF-295): -0.53%; inhibition of growth at 10 µM (DU-145): -8.66% |
| O=C1Nc2c(sc3ccc(Cl)cc23)C(c2ccccc2O)N1 (stereo not drawn) | 7.73% | 27.4% | 4.91% | 3.74% | 0.19% | -7.33% | 17.4% | 18.7% | 14.7% | 15.2% | 19.1% | -4.19% | 7.77% | -3.51% | 18.5% | -3.03% | -8.18% | 13.9% | 16% | -0.62% | inhibition of growth at 10 µM (A549): -1.35%; inhibition of growth at 10 µM (SF-539): 3.22%; inhibition of growth at 10 µM (IGROV-1): 19.7%; inhibition of growth at 10 µM (SNB-19): 2.91%; inhibition of growth at 10 µM (OVCAR-4): 9.71%; inhibition of growth at 10 µM (TK-10): -18.6%; inhibition of growth at 10 µM (UACC-257): 9.85%; inhibition of growth at 10 µM (OVCAR-5): 1.92%; inhibition of growth at 10 µM (Malme-3M): 15.8%; inhibition of growth at 10 µM (COLO 205): -9.33%; inhibition of growth at 10 µM (ACHN): 9.18%; inhibition of growth at 10 µM (HCC 2998): -15.3%; inhibition of growth at 10 µM (T47D): 18.1%; inhibition of growth at 10 µM (EKVX): 21.9%; inhibition of growth at 10 µM (SW-620): -1.05%; inhibition of growth at 10 µM (BT-549): 4.41%; inhibition of growth at 10 µM (HCT-15): 2%; inhibition of growth at 10 µM (SF-295): 3.22%; inhibition of growth at 10 µM (DU-145): -8.18% |
